{"source": "patent US10329245B2", "about": "“Method for making a prenyl group-substituted tyrosine compound” (King Fahd University of Petroleum and Minerals, priority 2015, dated 2019)", "origin": "cited, not measured here", "test_system": "AGS (human gastric adenocarcinoma) cells", "settings": "AGS cell lines, p<0.01", "note": "Read-outs that look alike come from different tables or passages of the source."}
{"compound": "CC(=O)N[C@@H](Cc1ccc(O)c(CC=C(C)C)c1)C(=O)O", "note": "[compound 1, (S)-2-Acetamido-3-(4-hydroxy-3-(3-methylbut-2-enyl)phenyl)propanoic acid]", "values": [{"measurement": "cell viability, % of control levels", "setting": "75 μM compound 1 combined with 100 ng/mL TRAIL", "result": "77±7", "unit": "%"}, {"measurement": "cell viability, % of control levels", "setting": "150 μM compound 1 combined with 100 ng/mL TRAIL", "result": "67±5", "unit": "%"}]}
